{"source": "patent US12697326B2", "about": "“Methods of treating hepatic encephalopathy” (SALIX PHARMACEUTICALS, INC., priority 2008, dated 2026)", "tested_on": "Conn score (mental state grade) in subjects with HE", "test": "Time to any increase from baseline in Conn score, first study", "type": "in vivo, human", "description": "Measurements of change in mental status may be done, for example, by the Conn score (also known as the West Haven score). The Conn score has been widely used as a measure of mental state in HE studies and is based on the criteria of Parsons-Smith as modified by Conn. Asterixis will not be considered when assessing the subject's status using the Conn scoring criteria listed below.\nThe scale used in the Conn scoring system is provided below. • Grade 0=No personality or behavioral abnormality detected • Grade 1=Trivial lack of awareness, euphoria or anxiety; shortened attention span; impairment of addition or subtraction • Grade 2=Lethargy; disorientation for time; obvious personality change; inappropriate behavior • Grade 3=Somnolence to semi-stupor, responsive to stimuli; confused; gross disorientation; bizarre behavior • Grade 4=Coma; unable to test mental state\nFIG. 11 illustrates time to any increase from baseline in Conn score by treatment group in the ITT population. Table 20 presents estimates of the proportions of subjects who had any increase in Conn score over the course of the Treatment Period and results of statistical analyses. Subjects who discontinued prior to experiencing an increase in Conn score and prior to completion of the 6-month treatment period were censored at the time of discontinuation.", "key": {"[1]": {"conditions": "any increase from baseline in Conn score, 550 mg BID, N = 140, Days >=168"}, "[2]": {"conditions": "any increase from baseline in Conn score; 550 mg BID; N = 140; Days [0-28)"}, "[3]": {"conditions": "any increase from baseline in Conn score; 550 mg BID; N = 140; Days [28-56)"}, "[4]": {"conditions": "any increase from baseline in Conn score; 550 mg BID; N = 140; Days [56-84)"}, "[5]": {"conditions": "any increase from baseline in Conn score; 550 mg BID; N = 140; Days [84-140)"}, "[6]": {"conditions": "any increase from baseline in Conn score; 550 mg BID; N = 140; Days [140-168)"}, "[7]": {"conditions": "first study, ITT, first increase in Conn score, N = 140, treatment interval 0 to <28 days"}, "[8]": {"conditions": "first study, ITT, first increase in Conn score, N = 140, treatment interval 28 to <56 days"}, "[9]": {"conditions": "first study, ITT, first increase in Conn score, N = 140, treatment interval 56 to <84 days"}, "[10]": {"conditions": "first study, ITT, first increase in Conn score, N = 140, treatment interval 84 to <140 days"}, "[11]": {"conditions": "first study, ITT, first increase in Conn score, N = 140, treatment interval 140 to <168 days"}, "[12]": {"conditions": "first study, ITT, first increase in Conn score, N = 140, treatment interval ≥168 days"}}, "data": [{"smiles": "CO[C@H]1/C=C/O[C@@]2(C)Oc3c(C)c(O)c4c(O)c(c5c(nc6cc(C)ccn65)c4c3C2=O)NC(=O)/C(C)=C\\C=C\\[C@H](C)[C@H](O)[C@@H](C)[C@@H](O)[C@@H](C)[C@H](OC(C)=O)[C@@H]1C", "note": "[Rifaximin]", "values": [{"measurement": "Cumulative Occurrences of Events", "setting": "[1]", "result": 37}, {"measurement": "Occurrences of Events", "setting": "[1]", "result": 1}, {"measurement": "Survival", "setting": "[1]", "result": 0.7302}, {"measurement": "Cumulative Occurrences of Events", "setting": "[2]", "result": 17}, {"measurement": "Occurrences of Events", "setting": "[2]", "result": 17}, {"measurement": "Survival", "setting": "[2]", "result": 1.0000}, {"measurement": "Cumulative Occurrences of Events", "setting": "[3]", "result": 22}, {"measurement": "Occurrences of Events", "setting": "[3]", "result": 5}, {"measurement": "Survival", "setting": "[3]", "result": 0.8777}, {"measurement": "Cumulative Occurrences of Events", "setting": "[4]", "result": 31}, {"measurement": "Occurrences of Events", "setting": "[4]", "result": 9}, {"measurement": "Survival", "setting": "[4]", "result": 0.8407}, {"measurement": "Cumulative Occurrences of Events", "setting": "[5]", "result": 36}, {"measurement": "Occurrences of Events", "setting": "[5]", "result": 5}, {"measurement": "Survival", "setting": "[5]", "result": 0.7713}, {"measurement": "Cumulative Occurrences of Events", "setting": "[6]", "result": 36}, {"measurement": "Occurrences of Events", "setting": "[6]", "result": 0}, {"measurement": "Survival", "setting": "[6]", "result": 0.7302}, {"measurement": "Cummulative number of events", "setting": "[7]", "result": 17}, {"measurement": "Number of events", "setting": "[7]", "result": 17}, {"measurement": "Probability of no increase in Conn score", "setting": "[7]", "result": 1.0000}, {"measurement": "Cummulative number of events", "setting": "[8]", "result": 22}, {"measurement": "Number of events", "setting": "[8]", "result": 5}, {"measurement": "Cummulative number of events", "setting": "[9]", "result": 31}, {"measurement": "Number of events", "setting": "[9]", "result": 9}, {"measurement": "Cummulative number of events", "setting": "[10]", "result": 36}, {"measurement": "Number of events", "setting": "[10]", "result": 5}, {"measurement": "Cummulative number of events", "setting": "[11]", "result": 36}, {"measurement": "Number of events", "setting": "[11]", "result": 0}, {"measurement": "Cummulative number of events", "setting": "[12]", "result": 37}, {"measurement": "Number of events", "setting": "[12]", "result": 1}, {"measurement": "subjects with increases in Conn score (of 140)", "setting": "first study, rifaximin group", "result": 37}, {"measurement": "time to first increase in Conn scores vs placebo (FIG. 4, Kaplan Meier)", "setting": "in vivo", "result": "increased time to the first increase in Conn scores"}]}]}
